pIC50: −log10 of the molar value. Read-outs that look alike come from different tables or passages of the source.
Assays:
SW620 cells = assay: Anti-proliferative activity, AlamarBlue assay, SW620 cells; type: cell-based, human; conditions: for pIC50: SW620 human colorectal adenocarcinoma cells, 48-72 hours with compound, AlamarBlue, sigmoidal regression curve, read-out: IC50 of anti-proliferative drugs in SW620 cells
Experimental: (§1) Human colorectal adenocarcinoma cell lines HT29 and SW620, as well as murine colon carcinoma cell line CT26, were purchased from the American Type Culture Collection (ATCC) and grown in either Dulbecco's Modified Eagle Medium (DMEM) or Roswell Park Memorial Institute (RPMI) medium from Corning and Life Technologies, respectively. These media were supplemented with 10% fetal bovine serum (FBS, Atlanta Biologicals), as well as 1 mM sodium pyruvate (Corning) and 10 mM HEPES (Fisher) for CT26 cells. Cells were grown in Corning 75 cm^2 flasks and split approximately 6 days before plating, with a refeed of fresh media the day prior to plating. Anti-proliferative drugs 2, 3 and SN38, were reconstituted in DMSO for storage at −20° C. until use. AlamarBlue, a colorimetric cell metabolism reagent, was purchased from Life Technologies.
To qualify AlamarBlue incubation time and required cell density, cells were plated into flat bottom 96 well plates (Techno Plastic Products, Trasadingen, Switzerland) at plating densities from 4×10^4 to 1.25×10^3 cells per well. The cells were incubated at 37° C. inside a Nu-Aire TS Autoflow incubator with 5% CO2 and humidity for 48-72 hours, AlamarBlue reagent was then added to all wells, equivalent to 10% of the culture volume or 20 μL. The plates were returned to the 37° C. incubator, and the absorbance at 570 and 600 nm were assessed using a Bio-Tek Epoch microplate reader at 1, 2, 4, 7 and in some experiment 24 hours post addition of AlamarBlue. Once the optimum cell density and incubation time was determined for each cell line, testing of the anti-proliferative drugs on the cells was initiated. […] After addition of AlamarBlue, plates were incubated for 4 hours at 37° C. and absorbance assessed using the Epoch microplate reader. Absorbances were used to calculate the % inhibition for each well using the following equation, where O1 is the molar extinction coefficient of oxidized AlamarBlue at 570 nm (80586), O2 is the molar extinction coefficient of oxidized AlamarBlue at 600 nm (117216), A1 is the absorbance of the test wells at 570 nm, A2 is the absorbance of the test wells at 600 nm, P1 is the absorbance of the control wells with AlamarBlue but without test agent at 570, and P2 is the absorbance of the control wells with AlamarBlue but without the test agent at 600. % difference between=(O2×A1)−(O1×A2)×100treated and untreated cells (O2×P1)−(O1×P2)
(§2) The dose response data generated by these values was used to calculate the half maximal inhibitory concentration (IC50) using a regression curve (3 or 4 parameter logistic sigmoidal curve or sigmoidal sigmoid curve) in Sigma Plot, version 12.5. Statistical differences were calculated using SPSS Statistics software, version 17.0, using the independent t-test with an α of 0.05. […]

CT26 cells = assay: Anti-proliferative activity, AlamarBlue assay, CT26 cells; type: cell-based; conditions: CT26 murine colon carcinoma cells, 48-72 hours with compound, 4 parameter regression curve, read-out: IC50 of anti-proliferative drugs in CT26 cells
Experimental: as §1
To qualify AlamarBlue incubation time and required cell density, cells were plated into flat bottom 96 well plates (Techno Plastic Products, Trasadingen, Switzerland) at plating densities from 4×10^4 to 1.25×10^3 cells per well. […] The plates were returned to the 37° C. incubator, and the absorbance at 570 and 600 nm were assessed using a Bio-Tek Epoch microplate reader at 1, 2, 4, 7 and in some experiment 24 hours post addition of AlamarBlue. Once the optimum cell density and incubation time was determined for each cell line, testing of the anti-proliferative drugs on the cells was initiated. […] After addition of AlamarBlue, plates were incubated for 4 hours at 37° C. and absorbance assessed using the Epoch microplate reader. […]
as §2

HT29 cells = assay: Anti-proliferative activity, AlamarBlue assay, HT29 cells; type: cell-based, human; conditions: for % inhibition compared to SN38 / inhibition at 33.3 µM: HT29 cells; for % inhibition compared to SN38: highest concentration tested, 100 μM; for pIC50: HT29 human colorectal adenocarcinoma cells, 48-72 hours with compound, AlamarBlue, sigmoidal logistic regression curve, read-out: IC50 of anti-proliferative drugs in HT29 cells; for inhibition at 33.3 µM: Homo sapiens
Experimental: as §1
To qualify AlamarBlue incubation time and required cell density, cells were plated into flat bottom 96 well plates (Techno Plastic Products, Trasadingen, Switzerland) at plating densities from 4×10^4 to 1.25×10^3 cells per well. The cells were incubated at 37° C. inside a Nu-Aire TS Autoflow incubator with 5% CO2 and humidity for 48-72 hours, AlamarBlue reagent was then added to all wells, equivalent to 10% of the culture volume or 20 μL. The plates were returned to the 37° C. incubator, and the absorbance at 570 and 600 nm were assessed using a Bio-Tek Epoch microplate reader at 1, 2, 4, 7 and in some experiment 24 hours post addition of AlamarBlue. Once the optimum cell density and incubation time was determined for each cell line, testing of the anti-proliferative drugs on the cells was initiated. For each cell line, cells were plated at 5×10^3 cells per well and incubated at 37° C. for 24 hours, at which time the anti-proliferative compounds were added. […] Aliquots of anti-proliferatives were thawed, diluted in media appropriate for each cell line, and serially diluted 1:3. A serial pipetter, was used to deliver 100 μl of each concentration of anti-proliferative compound to the appropriate wells in triplicate, the plate was tapped gently to mix, and then incubated at 37° C. for 48-72 hours. Control wells containing media alone and media with an equal percentage of DMSO in comparison to the initial anti-proliferative dilution were also established in each plate. After a minimum of 48 hours of incubation, 20 μl of AlamarBlue was added to each experimental well as well as the negative control wells. AlamarBlue positive control wells, containing 200 μl of 100% reduced AlamarBlue, were also established to provide a colorimetric endpoint reference for the assay. After addition of AlamarBlue, plates were incubated for 4 hours at 37° C. and absorbance assessed using the Epoch microplate reader. Absorbances were used to calculate the % inhibition for each well using the following equation, where O1 is the molar extinction coefficient of oxidized AlamarBlue at 570 nm (80586), O2 is the molar extinction coefficient of oxidized AlamarBlue at 600 nm (117216), A1 is the absorbance of the test wells at 570 nm, A2 is the absorbance of the test wells at 600 nm, P1 is the absorbance of the control wells with AlamarBlue but without test agent at 570, and P2 is the absorbance of the control wells with AlamarBlue but without the test agent at 600. % difference between=(O2×A1)−(O1×A2)×100treated and untreated cells (O2×P1)−(O1×P2)
as §2

Row | SMILES | pIC50 (SW620 cells; SW-620) | pIC50 (CT26 cells; Mus musculus) | % inhibition compared to SN38 (HT29 cells) | pIC50 (HT29 cells; HT-29) | inhibition at 33.3 µM (HT29 cells; HT-29) [%] | % inhibition (SW620 cells; SW620 cells, throughout all concentrations tested (100 μM to 0.4 μM)) | pIC50 (SW620 cells) | pIC50 (CT26 cells) | pIC50 (HT29 cells)
1 | CCCCC(=O)O[C@]1(CC)C(=O)OCc2c1cc1n(c2=O)Cc2c-1nc1ccc(O)cc1c2CC [Compound 2] | 5.72 | 4.74 | not significantly different from SN38 | 5.25 | > 54 |  |  |  | 
2 | CCc1c2c(nc3ccc(O)cc13)-c1cc3c(c(=O)n1C2)COC(=O)[C@]3(O)CC [SN38, reference compound] |  |  |  |  |  | over 55% | 6.15 | 6.22 | 6.70
3 | CCCCCCCCCCCCCC(=O)O[C@]1(CC)C(=O)OCc2c1cc1n(c2=O)Cc2c-1nc1ccc(O)cc1c2CC [Compound 3] | 4.99 | 4.85 | not significantly different from SN38 | 4.77 | > 54 |  |  |  | 

Reference: patent US10407437B2, “Camptothecin derivatives and uses thereof” (Los Gatos Pharmaceuticals, Inc., priority 2016, dated 2019)
